According to patent US20100204182A1, “ECTONUCLEOTIDASE INHIBITORS” (RHEINISCHE FRIEDRICH-WILHELMS-UNIVERSITAT BONN, priority 2006, published 2010):
Read-outs that look alike come from different tables or passages of the source.

Legend:
human NTPDase8 = target: T1, human NTPDase8 (Homo sapiens, UniProt Q5MY95); test: NTPDase inhibition assay by capillary electrophoresis (CE), NTPDase8; type: biochemical; settings: for Ki: read-out: NTPDase8 Ki [μM] ± SEM; for inhibition at 1000 µM: 1 mM compound
T1 sequence (Q5MY95 1-495): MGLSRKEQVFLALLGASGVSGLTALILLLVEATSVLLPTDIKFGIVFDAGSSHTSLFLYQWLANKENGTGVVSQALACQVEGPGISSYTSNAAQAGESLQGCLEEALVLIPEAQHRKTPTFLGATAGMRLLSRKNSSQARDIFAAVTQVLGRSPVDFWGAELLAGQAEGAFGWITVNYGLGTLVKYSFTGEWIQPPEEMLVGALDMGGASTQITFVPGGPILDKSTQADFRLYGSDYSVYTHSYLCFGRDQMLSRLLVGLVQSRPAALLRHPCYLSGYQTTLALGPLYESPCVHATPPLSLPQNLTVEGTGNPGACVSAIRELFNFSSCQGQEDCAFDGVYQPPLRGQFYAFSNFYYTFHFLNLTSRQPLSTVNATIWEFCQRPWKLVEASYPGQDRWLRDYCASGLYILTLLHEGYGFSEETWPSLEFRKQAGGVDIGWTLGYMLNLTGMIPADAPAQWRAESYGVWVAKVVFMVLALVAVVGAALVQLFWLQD
Experimental: (§1) The applied enzyme inhibition assay has been described (Iqbal J, Vollmayer P, Braun N, Zimmermann H, Müller C E. A capillary electrophoresis method for the characterization of ecto-nucleoside triphosphate diphosphohydrolases (NTPDases) and the analysis of inhibitors by in-capillary enzymatic microreaction. Purinergic Signalling 2005, 1, 349-358).
(§2) A. CE instrumentation: All experiments were carried out using a P/ACE MDQ capillary electrophoresis system (Beckman Instruments, Fullerton, Calif., USA) equipped with a UV detection system coupled with a diode-array detector (DAD). Data collection and peak area analysis were performed by the P/ACE MDQ software 32 KARAT obtained from Beckman Coulter. The capillary temperature was kept constant at 25° C. The temperature of the sample storing unit was also adjusted to 25° C. The electrophoretic separations were carried out using an eCAP polyacrylamide-coated fused-silica capillary [(30 cm (20 cm effective length)×50 μm internal diameter (I.D.)×360 μm outside diameter (O.D.), obtained from CS-Chromatographie (Langerwehe, Germany)]. The separation was performed using an applied current of −60 μA and a data acquisition rate of 8 Hz. Analytes were detected using direct UV absorbance at 210 nm. The capillary was conditioned by rinsing with water for 2 min and subsequently with buffer (phosphate 50 mM, pH 6.5) for 1 min. Sample injections were made at the cathodic side of the capillary.
(§3) B. NTPDase inhibition assay by capillary electrophoresis: Enzyme inhibition assays were carried out at 37° C. in a final volume of 100 μl. The reaction mixture contained 320 μM of ATP (substrate) in reaction buffer. The reaction buffer contained 140 mM NaCl, 5 mM KCl, 1 mM MgCl2, 2 mM CaCl2, and 10 mM Hepes, pH 7.4.
(§4) Different concentrations of inhibitors dissolved in DMSO or water (10 μl) were added and the reaction was initiated by the addition of 10 μl of the appropriately diluted recombinant or native human or rat NTPDase enzyme. […] The mixture (final volume 100 μl) was incubated for 15 min and terminated by heating at 99° C. for 4 min. Aliquots of the reaction mixture (50 μl) were then transferred to mini-CE vials and injected into the CE instrument under the conditions described above. 20 μM of UMP was used as internal standard. Inhibition of NTPDase was tested over a range of 6 to 8 concentrations of test compound spanning 3 orders of magnitude to determine K1 values. Each analysis was repeated two times (in triplicates) in two separate experiments. The Cheng-Prusoff equation was used to calculate the K1 values from the IC50 values, determined by the non-linear curve fitting program PRISM® 3.0 (GraphPad, San Diego, Calif., USA). In table 1K, values of selected compounds as inhibitors of human NTPDases are given.

hP2Y12 = hP2Y12 (Homo sapiens, UniProt Q9H244); test: Inhibition of [3H]PSB-0413 binding at hP2Y12; settings: mean ± SEM, read-out: hP2Y12 % Inhibition of [^3H]PSB-0413 Binding at 10 μM, n = 3
Experimental: In table 2 inhibition data of selected examples at human P2Y receptor subtypes were collected. It can be seen that no compound was identified that inhibited P2Y receptors at high concentrations of 100 μM and 10 μM, respectively.

rP2Y6 = rP2Y6 (Rattus norvegicus, UniProt Q63371); test: Inhibition of UDP binding at rP2Y6; settings: read-out: rP2Y6 % inhibition of UDP binding at 100 μM, n = 3, mean ± SEM
human NTPDase1 = target: T2, human NTPDase1 (Homo sapiens, UniProt P49961); test: NTPDase inhibition assay by capillary electrophoresis (CE), NTPDase1; type: biochemical; settings: ATP 320 μM; for Ki: CE method, Km 17 μM, read-out: NTPDase1 Ki [μM] ± SEM; for inhibition at 1000 µM: 1 mM compound
T2 sequence (P49961 1-510): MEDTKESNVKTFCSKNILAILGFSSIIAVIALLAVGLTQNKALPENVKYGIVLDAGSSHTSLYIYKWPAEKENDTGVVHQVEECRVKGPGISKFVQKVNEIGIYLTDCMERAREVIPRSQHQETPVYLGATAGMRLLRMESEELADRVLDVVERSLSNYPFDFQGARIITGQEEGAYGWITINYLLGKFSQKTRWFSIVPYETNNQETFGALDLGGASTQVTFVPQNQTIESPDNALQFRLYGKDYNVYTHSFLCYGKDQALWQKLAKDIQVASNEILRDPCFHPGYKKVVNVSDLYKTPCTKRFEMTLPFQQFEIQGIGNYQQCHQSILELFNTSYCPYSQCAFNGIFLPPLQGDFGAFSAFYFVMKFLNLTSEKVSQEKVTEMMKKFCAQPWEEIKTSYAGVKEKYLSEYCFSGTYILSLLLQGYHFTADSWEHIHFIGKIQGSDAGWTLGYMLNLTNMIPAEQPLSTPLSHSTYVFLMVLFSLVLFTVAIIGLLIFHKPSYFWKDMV
Experimental: as §1, §2, §3, §4

human NTPDase3 = target: T3, human NTPDase3 (Homo sapiens, UniProt O75355); test: NTPDase inhibition assay by capillary electrophoresis (CE), NTPDase3; type: biochemical; settings: ATP 320 μM; for inhibition at 1000 µM: 1 mM compound; for Ki: CE method, Km 75 μM, read-out: NTPDase3 Ki [μM] ± SEM
T3 sequence (O75355 1-529): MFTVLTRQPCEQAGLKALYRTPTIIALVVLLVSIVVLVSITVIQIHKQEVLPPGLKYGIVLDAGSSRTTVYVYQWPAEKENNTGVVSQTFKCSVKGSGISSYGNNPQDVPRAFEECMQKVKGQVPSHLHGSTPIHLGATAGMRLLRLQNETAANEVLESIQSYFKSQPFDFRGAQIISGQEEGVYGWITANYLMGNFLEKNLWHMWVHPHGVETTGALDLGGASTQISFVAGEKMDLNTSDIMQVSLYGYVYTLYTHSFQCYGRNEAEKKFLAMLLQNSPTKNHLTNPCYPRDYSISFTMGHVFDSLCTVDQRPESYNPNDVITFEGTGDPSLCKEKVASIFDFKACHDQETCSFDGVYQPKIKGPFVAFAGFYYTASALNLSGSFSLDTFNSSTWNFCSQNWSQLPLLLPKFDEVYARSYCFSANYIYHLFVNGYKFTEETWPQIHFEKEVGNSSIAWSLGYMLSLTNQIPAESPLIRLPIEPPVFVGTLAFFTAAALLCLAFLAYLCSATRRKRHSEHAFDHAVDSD
Experimental: as §1, §2, §3, §4

human NTPDase2 = target: T4, human NTPDase2 (Homo sapiens, UniProt Q9Y5L3); test: NTPDase inhibition assay by capillary electrophoresis (CE), NTPDase2; type: biochemical; settings: human NTPDase2; CE method; ATP 320 μM; Km 70 μM; read-out: NTPDase2 Ki [μM] ± SEM
T4 sequence (Q9Y5L3 1-495): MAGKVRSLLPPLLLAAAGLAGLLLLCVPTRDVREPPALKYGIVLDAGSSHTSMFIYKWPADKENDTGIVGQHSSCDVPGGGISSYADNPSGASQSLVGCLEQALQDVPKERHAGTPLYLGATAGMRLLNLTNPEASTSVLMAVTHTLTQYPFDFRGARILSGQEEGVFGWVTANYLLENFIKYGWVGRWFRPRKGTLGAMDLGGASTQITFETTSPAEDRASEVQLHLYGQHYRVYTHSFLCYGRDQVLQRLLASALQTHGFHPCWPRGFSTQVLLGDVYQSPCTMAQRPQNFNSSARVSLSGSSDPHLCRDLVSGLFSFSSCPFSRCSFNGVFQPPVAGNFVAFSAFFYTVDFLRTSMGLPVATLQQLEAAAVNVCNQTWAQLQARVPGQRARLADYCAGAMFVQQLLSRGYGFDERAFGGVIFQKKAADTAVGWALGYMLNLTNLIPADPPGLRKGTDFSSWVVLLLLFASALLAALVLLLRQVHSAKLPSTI

hP2Y12, sequence (Q9H244 whole entry): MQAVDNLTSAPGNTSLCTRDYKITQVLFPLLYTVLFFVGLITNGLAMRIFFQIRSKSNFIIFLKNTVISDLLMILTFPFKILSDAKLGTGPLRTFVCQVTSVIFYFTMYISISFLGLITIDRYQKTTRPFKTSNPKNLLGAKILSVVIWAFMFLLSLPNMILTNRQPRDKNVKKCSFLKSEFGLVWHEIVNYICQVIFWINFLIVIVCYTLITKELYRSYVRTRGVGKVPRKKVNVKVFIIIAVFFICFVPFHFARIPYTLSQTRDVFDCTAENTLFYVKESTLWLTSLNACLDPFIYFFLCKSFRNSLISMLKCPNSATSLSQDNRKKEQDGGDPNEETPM
rP2Y6, sequence (Q63371 whole entry): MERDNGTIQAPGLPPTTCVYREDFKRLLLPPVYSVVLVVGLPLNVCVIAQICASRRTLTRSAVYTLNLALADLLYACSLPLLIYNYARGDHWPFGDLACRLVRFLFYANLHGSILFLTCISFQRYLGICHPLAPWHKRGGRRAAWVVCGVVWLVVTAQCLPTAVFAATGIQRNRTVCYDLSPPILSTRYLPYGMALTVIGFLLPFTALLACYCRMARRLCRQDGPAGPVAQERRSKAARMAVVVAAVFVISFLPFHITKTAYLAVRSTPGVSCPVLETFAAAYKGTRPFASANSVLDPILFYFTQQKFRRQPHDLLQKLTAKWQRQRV

In the case of `CCOP(=O)(Cc1ccc(NC(=O)CCCNC(=O)[C@H]2O[C@@H](n3ccc(=O)[nH]c3=O)C(O)C2O)cc1)OCC` (stereo in doubt) [Compound 4, 4-[4-((2S,3R,4S,5R)-5-(2,4-Dioxo-3,4-dihydropyrimidin-1(2H)-yl)-3,4-dihydroxy-tetrahydrofurane-2-carboxamido)butaneamido]benzylphosphonic acid diethylester], the Ki (human NTPDase8; human NTPDase8, CE method, ATP 320 μM, Km 46 μM) is reported as 242 ± 39.3 µM, the inhibition at 10 µM (hP2Y12) is reported as 6 ± 4% and the inhibition at 100 µM (rP2Y6) is reported as -8 ± 11%. For the same compound, the Ki (human NTPDase1) was 182 ± 24.3 µM, the inhibition at 1000 µM (human NTPDase3) was 48% and the Ki (human NTPDase3) was over 200 µM. It also gave a Ki (human NTPDase2) of 210 ± 25.3 µM.

Compound `CCOP(=O)(CCNC(=O)CNC(=O)[C@H]1O[C@@H](n2ccc(=O)[nH]c2=O)C(O)C1O)OCC` (stereo in doubt) [Compound 8, 2-[2-((2S,3R,4S,5R)-5-(2,4-Dioxo-3,4-dihydropyrimidin-1(2H)-yl)-3,4-dihydroxy-tetrahydrofurane-2-carboxamido)ethaneamido]ethylphosphonic acid diethylester] has an inhibition at 1000 µM (human NTPDase8; human NTPDase8, ATP 320 μM) of 0%, a Ki (human NTPDase8) of over 100 µM and an inhibition at 10 µM (hP2Y12) of 2 ± 3%. The inhibition at 100 µM (rP2Y6) was 9 ± 13%, the inhibition at 1000 µM (human NTPDase1) was 0% and the Ki (human NTPDase1) was over 50 µM. For the same compound, the inhibition at 1000 µM (human NTPDase3) was 22%, the Ki (human NTPDase3) was over 200 µM and the Ki (human NTPDase2) was 116 ± 24 µM.

In the case of `CCOP(=O)(CNC(=O)CCCNC(=O)[C@H]1O[C@@H](n2ccc(=O)[nH]c2=O)C(O)C1O)OCC` (stereo in doubt) [Compound 7, 4-[(2S,3R,4S,5R)-5-(2,4-Dioxo-3,4-dihydropyrimidin-1(2H)-yl)-3,4-dihydroxy-tetrahydrofurane-2-carboxamido]butaneamidomethylphosphonic acid diethylester], the inhibition at 1000 µM (human NTPDase8; human NTPDase8, ATP 320 μM) is reported as 0%, the Ki (human NTPDase8) is reported as over 100 µM and the inhibition at 10 µM (hP2Y12) is reported as 2 ± 8%. It also gave an inhibition at 100 µM (rP2Y6) of -3 ± 11%, an inhibition at 1000 µM (human NTPDase1) of 45% and a Ki (human NTPDase1) of over 50 µM. For the same compound, the inhibition at 1000 µM (human NTPDase3) was 0%, the Ki (human NTPDase3) was over 200 µM and the Ki (human NTPDase2) was 29.2 ± 2.7 µM.

`CCOP(=O)(CNC(=O)CCNC(=O)[C@H]1O[C@@H](n2ccc(=O)[nH]c2=O)[C@H](O)[C@@H]1O)OCC` [Compound 6, 3-[(2S,3R,4S,5R)-5-(2,4-Dioxo-3,4-dihydropyrimidin-1(2H)-yl)-3,4-dihydroxy-tetrahydrofurane-2-carboxamido]pronaneamidomethylphosphonic acid diethylester] showed an inhibition at 1000 µM (human NTPDase8; human NTPDase8, ATP 320 μM) of 0%, a Ki (human NTPDase8) of over 100 µM and an inhibition at 10 µM (hP2Y12) of 7 ± 5%. It also gave an inhibition at 100 µM (rP2Y6) of -3 ± 2%, an inhibition at 1000 µM (human NTPDase1) of 0% and a Ki (human NTPDase1) of over 50 µM. The inhibition at 1000 µM (human NTPDase3) was 0%, the Ki (human NTPDase3) was over 200 µM and the Ki (human NTPDase2) was 167 ± 21 µM.
